According to PubChem BioAssay AID2060493 (Molecular Pharmacology Branch, DTP, NCI, 2025):

Test system: 616215-338-R-J1-PDC tumor spheroids, viability
Test: Anticancer human tumor 616215-338-R-J1-PDC patient-derived colon adenocarcinoma cell line growth inhibition [GQUAD]
Settings: spheroids with HUVEC and MSC; for IC50: curve of first compound; for viability, T/C: stronger effect = lower value
Procedure, shortened: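 Multi-cell-type spheroids of tumor cells with HUVEC and mesenchymal stem cells, treated with drug combinations. Concentrations descend in half-log steps from near clinical Cmax, or from 10 microM where Cmax is unknown; viability read-out.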

[1] = second compound 0.0316 µM, first compound 0.0316 µM
[2] = second compound 0.0316 µM, first compound 0.1 µM
[3] = second compound 0.0316 µM, first compound 0.316 µM
[4] = second compound 0.0316 µM, first compound 1 µM
[5] = second compound 0.0316 µM, first compound 3.16 µM
[6] = second compound 0.0316 µM, first compound 10 µM
[7] = second compound 0.1 µM, first compound 0.0316 µM
[8] = second compound 0.1 µM, first compound 0.1 µM
[9] = second compound 0.1 µM, first compound 0.316 µM
[10] = second compound 0.1 µM, first compound 1 µM
[11] = second compound 0.1 µM, first compound 3.16 µM
[12] = second compound 0.1 µM, first compound 10 µM
[13] = second compound 0.316 µM, first compound 0.0316 µM
[14] = second compound 0.316 µM, first compound 0.1 µM
[15] = second compound 0.316 µM, first compound 0.316 µM
[16] = second compound 0.316 µM, first compound 1 µM
[17] = second compound 0.316 µM, first compound 3.16 µM
[18] = second compound 0.316 µM, first compound 10 µM
[19] = second compound 1 µM, first compound 0.0316 µM
[20] = second compound 1 µM, first compound 0.1 µM
[21] = second compound 1 µM, first compound 0.316 µM
[22] = second compound 1 µM, first compound 1 µM
[23] = second compound 1 µM, first compound 3.16 µM
[24] = second compound 1 µM, first compound 10 µM
[25] = second compound 3.16 µM, first compound 0.0316 µM
[26] = second compound 3.16 µM, first compound 0.1 µM
[27] = second compound 3.16 µM, first compound 0.316 µM
[28] = second compound 3.16 µM, first compound 1 µM
[29] = second compound 3.16 µM, first compound 3.16 µM
[30] = second compound 3.16 µM, first compound 10 µM
[31] = second compound 10 µM, first compound 0.0316 µM
[32] = second compound 10 µM, first compound 0.1 µM
[33] = second compound 10 µM, first compound 0.316 µM
[34] = second compound 10 µM, first compound 1 µM
[35] = second compound 10 µM, first compound 3.16 µM
[36] = second compound 10 µM, first compound 10 µM
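Note: spheroids exposed to agents for 7 days before readout.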
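Throughout, for viability, T/C: percent viability relative to DMSO vehicle control wells taken as 100%.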

COc1cccc2c1C(=O)c1c(O)c3c(c(O)c1C2=O)CC(O)(C(=O)CO)CC3OC1CC(N)C(O)C(C)O1 (stereo unspecified) + CN(C)c1ccc(Nc2c3ccc(NC(=O)CCN4CCCC4)cc3nc3cc(NC(=O)CCN4CCCC4)ccc23)cc1
IC50 (second compound 0.0316 µM): 467 nM | IC50 (second compound 0.1 µM): 511 nM | IC50 (second compound 0.316 µM): 483 nM | IC50 (second compound 1 µM): 469 nM | IC50 (second compound 3.16 µM): 511 nM | IC50 (second compound 10 µM): 348 nM | viability, T/C [1]: 101% | viability, T/C [2]: 88% | viability, T/C [3]: 51.7% | viability, T/C [4]: 36.2% | viability, T/C [5]: 17.7% | viability, T/C [6]: 1.14% | viability, T/C [7]: 101% | viability, T/C [8]: 92.3% | viability, T/C [9]: 47.3% | viability, T/C [10]: 41.3% | viability, T/C [11]: 20.1% | viability, T/C [12]: 0.23% | viability, T/C [13]: 105% | viability, T/C [14]: 90.8% | viability, T/C [15]: 49.3% | viability, T/C [16]: 38% | viability, T/C [17]: 20.1% | viability, T/C [18]: 0.36% | viability, T/C [19]: 102% | viability, T/C [20]: 77.8% | viability, T/C [21]: 53.3% | viability, T/C [22]: 36% | viability, T/C [23]: 19.9% | viability, T/C [24]: 1.11% | viability, T/C [25]: 97.6% | viability, T/C [26]: 87.2% | viability, T/C [27]: 46.3% | viability, T/C [28]: 45.4% | viability, T/C [29]: 19.6% | viability, T/C [30]: 3.39% | viability, T/C [31]: 101% | viability, T/C [32]: 78% | viability, T/C [33]: 48.9% | viability, T/C [34]: 30.5% | viability, T/C [35]: 20.5% | viability, T/C [36]: 2.68%

Cc1[nH]c2ccccc2c1CCNCc1ccc(/C=C/C(=O)NO)cc1 + CN(C)c1ccc(Nc2c3ccc(NC(=O)CCN4CCCC4)cc3nc3cc(NC(=O)CCN4CCCC4)ccc23)cc1
IC50 (second compound 0.0316 µM): 174 nM | IC50 (second compound 0.1 µM): 132 nM | IC50 (second compound 0.316 µM): 134 nM | IC50 (second compound 1 µM): 118 nM | IC50 (second compound 3.16 µM): 90.8 nM | IC50 (second compound 10 µM): 66.1 nM | viability, T/C (second compound 0.0316 µM, first compound 0.000999 µM): 104% | viability, T/C (second compound 0.0316 µM, first compound 0.00316 µM): 102% | viability, T/C (second compound 0.0316 µM, first compound 0.00999 µM): 104% | viability, T/C [1]: 107% | viability, T/C (second compound 0.0316 µM, first compound 0.0999 µM): 83.1% | viability, T/C [3]: 14.2% | viability, T/C (second compound 0.1 µM, first compound 0.000999 µM): 93.1% | viability, T/C (second compound 0.1 µM, first compound 0.00316 µM): 99.5% | viability, T/C (second compound 0.1 µM, first compound 0.00999 µM): 104% | viability, T/C [7]: 88.8% | viability, T/C (second compound 0.1 µM, first compound 0.0999 µM): 61.2% | viability, T/C [9]: 15.8% | viability, T/C (second compound 0.316 µM, first compound 0.000999 µM): 101% | viability, T/C (second compound 0.316 µM, first compound 0.00316 µM): 103% | viability, T/C (second compound 0.316 µM, first compound 0.00999 µM): 113% | viability, T/C [13]: 104% | viability, T/C (second compound 0.316 µM, first compound 0.0999 µM): 62.7% | viability, T/C [15]: 12.3% | viability, T/C (second compound 1 µM, first compound 0.000999 µM): 113% | viability, T/C (second compound 1 µM, first compound 0.00316 µM): 93.8% | viability, T/C (second compound 1 µM, first compound 0.00999 µM): 105% | viability, T/C [19]: 86% | viability, T/C (second compound 1 µM, first compound 0.0999 µM): 57% | viability, T/C [21]: 7.13% | viability, T/C (second compound 3.16 µM, first compound 0.000999 µM): 102% | viability, T/C (second compound 3.16 µM, first compound 0.00316 µM): 96.8% | viability, T/C (second compound 3.16 µM, first compound 0.00999 µM): 87.8% | viability, T/C [25]: 92% | viability, T/C (second compound 3.16 µM, first compound 0.0999 µM): 46.2% | viability, T/C [27]: 12.2% | viability, T/C (second compound 10 µM, first compound 0.000999 µM): 92.9% | viability, T/C (second compound 10 µM, first compound 0.00316 µM): 93% | viability, T/C (second compound 10 µM, first compound 0.00999 µM): 77.7% | viability, T/C [31]: 70.3% | viability, T/C (second compound 10 µM, first compound 0.0999 µM): 39.3% | viability, T/C [33]: 0.37%

CC(=O)O[C@H]1C(=O)[C@@]2(C)[C@H]([C@H](OC(=O)c3ccccc3)[C@]3(O)C[C@H](OC(=O)[C@H](O)[C@@H](NC(=O)c4ccccc4)c4ccccc4)C(C)=C1C3(C)C)[C@]1(OC(C)=O)CO[C@@H]1C[C@@H]2O + Cc1[nH]c2ccc(F)cc2c1-c1nc2c3cccnc3c3ncccc3c2[nH]1
IC50 (second compound 0.0316 µM): < 31.6 nM | IC50 (second compound 0.1 µM): < 31.6 nM | IC50 (second compound 0.316 µM): < 31.6 nM | IC50 (second compound 1 µM): < 31.6 nM | IC50 (second compound 3.16 µM): < 31.6 nM | IC50 (second compound 10 µM): < 31.6 nM | viability, T/C [1]: 25.5% | viability, T/C [2]: 21.1% | viability, T/C [3]: 16.1% | viability, T/C [4]: 14.5% | viability, T/C [5]: 13.6% | viability, T/C [6]: 12.9% | viability, T/C [7]: 31.7% | viability, T/C [8]: 15.6% | viability, T/C [9]: 15.4% | viability, T/C [10]: 12.1% | viability, T/C [11]: 11.7% | viability, T/C [12]: 13.8% | viability, T/C [13]: 22.9% | viability, T/C [14]: 18.9% | viability, T/C [15]: 15.5% | viability, T/C [16]: 11.6% | viability, T/C [17]: 13.1% | viability, T/C [18]: 11.6% | viability, T/C [19]: 19.6% | viability, T/C [20]: 12.4% | viability, T/C [21]: 12.8% | viability, T/C [22]: 11.8% | viability, T/C [23]: 13.2% | viability, T/C [24]: 14.7% | viability, T/C [25]: 14.9% | viability, T/C [26]: 14.7% | viability, T/C [27]: 15.1% | viability, T/C [28]: 10.2% | viability, T/C [29]: 10.8% | viability, T/C [30]: 11.1% | viability, T/C [31]: 16% | viability, T/C [32]: 12.5% | viability, T/C [33]: 14.9% | viability, T/C [34]: 11.5% | viability, T/C [35]: 10.1% | viability, T/C [36]: 10.8%
